Measured values as given in the supplement of paper PMC10307832.

Assays:
Assay in all cases: relative viability (nuclei count vs DMSO), 5 days (fraction); higher = more cells survive
Obatoclax + Trametinib = compound: COC1=CC(c2cc3ccccc3[nH]2)=N/C1=C\c1[nH]c(C)cc1C [Obatoclax] + CC(=O)Nc1cccc(-n2c(=O)n(C3CC3)c(=O)c3c(Nc4ccc(I)cc4F)n(C)c(=O)c(C)c32)c1 [Trametinib] (partner 0.02 µM)
Procedure, shortened: (§1)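 For relative viability, nuclei counts in treated wells were divided by those in vehicle wells. Lung cancer cell lines had been pin-tool dosed in 1536-well plates the day after seeding and cultured for 5 days, then fixed and stained in one step (final 0.05% Triton X-100, 1% formaldehyde, 1 ug/ml Hoechst) and imaged at 4×. Doses were one drug alone or a fixed anchor-drug dose plus five library-drug doses (not always all listed) in √10 steps, and values are duplicate-plate medians.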

[1] = compound: CC1=CC(=NN1)NC2=CC(=NC(=N2)/C=C/C3=CC=CC=C3)N4CCN(CC4)C + Cc1nc(NC(=O)N2CCC[C@H]2C(N)=O)sc1-c1ccnc(C(C)(C)C(F)(F)F)c1 [Alpelisib] (partner 2 µM)
Procedure, shortened: as §1

Obatoclax + Navitoclax = compound: COC1=CC(c2cc3ccccc3[nH]2)=N/C1=C\c1[nH]c(C)cc1C [Obatoclax] + CC1(C)CCC(c2ccc(Cl)cc2)=C(CN2CCN(c3ccc(C(=O)NS(=O)(=O)c4ccc(N[C@H](CCN5CCOCC5)CSc5ccccc5)c(S(=O)(=O)C(F)(F)F)c4)cc3)CC2)C1 [Navitoclax] (partner 0.5 µM)
Procedure, shortened: as §1

Obatoclax + Alpelisib = compound: COC1=CC(c2cc3ccccc3[nH]2)=N/C1=C\c1[nH]c(C)cc1C [Obatoclax] + Cc1nc(NC(=O)N2CCC[C@H]2C(N)=O)sc1-c1ccnc(C(C)(C)C(F)(F)F)c1 [Alpelisib] (partner 2 µM)
Procedure, shortened: as §1

| Cell Line | relative viability (Obatoclax + Trametinib; first compound 0.01 µM) | relative viability (Obatoclax + Trametinib; first compound 0.03162 µM) | relative viability (Obatoclax + Trametinib; first compound 0.1 µM) | relative viability (Obatoclax + Trametinib; first compound 0.3162 µM) | relative viability (Obatoclax + Trametinib; first compound 1 µM) | relative viability ([1]; first compound 0.08 µM) | relative viability ([1]; first compound 0.253 µM) | relative viability ([1]; first compound 0.8 µM) | relative viability ([1]; first compound 2.53 µM) | relative viability ([1]; first compound 8 µM) | relative viability (Obatoclax + Navitoclax; first compound 0.01 µM) | relative viability (Obatoclax + Navitoclax; first compound 0.03162 µM) | relative viability (Obatoclax + Navitoclax; first compound 0.1 µM) | relative viability (Obatoclax + Navitoclax; first compound 0.3162 µM) | relative viability (Obatoclax + Navitoclax; first compound 1 µM) | relative viability (Obatoclax + Alpelisib; first compound 0.01 µM) | relative viability (Obatoclax + Alpelisib; first compound 0.03162 µM) | relative viability (Obatoclax + Alpelisib; first compound 0.1 µM) | relative viability (Obatoclax + Alpelisib; first compound 0.3162 µM) | relative viability (Obatoclax + Alpelisib; first compound 1 µM) |
| --- | --- | --- | --- | --- | --- | --- | --- | --- | --- | --- | --- | --- | --- | --- | --- | --- | --- | --- | --- | --- |
| NCI-H2342 | 0.859 | 0.849 | 0.907 | 0.788 | 0.861 | – | – | – | – | – | – | – | – | – | – | – | – | – | – | – |
| HCC-827 | 0.523 | 0.512 | 0.734 | 0.475 | 0.595 | 0.934 | 0.984 | 1.02 | 0.874 | 0.475 | 0.997 | 0.99 | 1.06 | 0.988 | 1 | 0.949 | 0.931 | 0.957 | 0.984 | 0.964 |
| NCI-H322M | 0.547 | 0.482 | 0.71 | 0.535 | 0.669 | 0.716 | 0.792 | 0.757 | 0.436 | 0.204 | 1.16 | 1.26 | 1.29 | 1.14 | 1.39 | 0.705 | 0.819 | 0.793 | 0.889 | 0.781 |
| ChaGo-K-1 | 0.951 | 0.846 | 0.869 | 0.894 | 0.878 | – | – | – | – | – | 0.956 | 0.669 | – | 0.955 | 1.32 | – | – | – | – | – |
| BEN | 1.01 | 1.01 | 0.861 | 0.944 | 1.03 | 1.06 | 1.1 | 0.986 | 0.865 | 0.186 | 0.0996 | 0.0601 | 0.052 | 0.0537 | 0.078 | 0.963 | 1 | 0.904 | 1.16 | 0.911 |
| NCI-H2347 | 0.312 | 0.305 | 0.27 | 0.237 | 0.277 | 1.06 | 1.15 | 1.07 | 0.915 | 0.517 | 0.724 | 0.781 | 0.698 | 0.602 | 0.877 | 1.02 | 0.994 | 0.841 | 1.01 | 0.93 |
| LOU-NH91 | 0.766 | 0.784 | 0.717 | 0.723 | 0.592 | 0.68 | 0.816 | 0.762 | 0.61 | 0.404 | 0.761 | 0.739 | 0.556 | 0.549 | 0.364 | 0.741 | 0.651 | 0.66 | 0.643 | 0.636 |
| NCI-H2228 | 0.573 | 0.454 | 0.576 | 0.473 | 0.474 | 0.632 | 0.714 | 0.437 | 0.112 | 0.0706 | 1.16 | 0.984 | 0.677 | 0.919 | 0.944 | 0.662 | 0.601 | 0.629 | 0.436 | 0.27 |
| NCI-H358 | 0.129 | 0.127 | 0.165 | 0.135 | 0.114 | 0.934 | 0.821 | 0.539 | 0.142 | 0.153 | – | – | – | – | – | 0.925 | 0.848 | 0.635 | 0.336 | 0.283 |
| HCC-366 | 0.348 | 0.323 | 0.321 | 0.245 | 0.228 | 0.376 | 0.646 | 0.363 | 0.0741 | 0.0115 | 0.969 | 1.03 | 1.05 | 0.988 | 1.01 | 0.382 | 0.363 | 0.366 | 0.396 | 0.233 |
| NCI-H2405 | 0.6 | 0.746 | – | 0.741 | 0.861 | 0.687 | 0.6 | 0.983 | 0.414 | 0.148 | 0.82 | 1.06 | – | 0.862 | 0.857 | 0.806 | 0.891 | – | 0.777 | 0.711 |
| Calu-6 | – | – | – | – | – | 1.01 | 0.973 | 0.661 | 0.134 | 0.117 | 0.874 | 0.977 | 0.852 | 0.506 | 0.0891 | 0.899 | 1.01 | 0.898 | 0.677 | 0.205 |
| 201T | 0.713 | 0.737 | 0.776 | 0.722 | 0.752 | 1.04 | 1.08 | 1.01 | 0.931 | 0.793 | 1.23 | 1.2 | 1.18 | 1.21 | 1.31 | 1 | 0.983 | 1.02 | 1.04 | 1.08 |
| CAL-12T | 0.337 | 0.431 | 0.47 | 0.246 | 0.14 | 1.04 | 1.21 | 1.24 | 0.339 | 0.121 | 1.06 | 1.03 | 1.24 | 0.926 | 0.103 | 1.14 | 1.29 | 1.01 | 0.695 | 0.129 |
| HCC-44 | 1.09 | 1.02 | 0.989 | 1.1 | 0.994 | 0.784 | 0.879 | 0.675 | 0.281 | 0.0774 | 0.923 | 0.803 | 0.989 | 0.911 | 1.05 | 0.84 | 0.706 | 0.801 | 0.607 | 0.21 |
| NCI-H1944 | 0.407 | 0.391 | 0.428 | 0.392 | 0.398 | 0.816 | 0.995 | 0.759 | 0.568 | 0.304 | 0.97 | 1.01 | 1.05 | 1.05 | 1.08 | 0.808 | 0.817 | 0.859 | 0.89 | 0.839 |
| SK-MES-1 | 0.635 | 0.572 | 0.713 | 0.554 | 0.319 | 0.882 | 0.853 | 0.958 | 0.623 | 0.131 | 1.28 | 1.16 | 1.22 | 1.03 | 0.64 | 0.828 | 0.785 | 1.01 | 0.824 | 0.645 |
| NCI-H2087 | 0.2 | 0.204 | 0.22 | 0.145 | 0.122 | 1.11 | 1.04 | 1.07 | 0.965 | 0.135 | 0.9 | 0.857 | 0.866 | 0.438 | 0.196 | 0.738 | 1.18 | 0.953 | 0.854 | 0.354 |
